Laboratory results as given in ChEMBL document CHEMBL4316589, “Attachment of a 5-nitrofuroyl moiety to spirocyclic piperidines produces non-toxic nitrofurans that are efficacious in vitro against multidrug-resistant Mycobacterium tuberculosis” (Eur J Med Chem, 2019).
≈ marks a conversion by molar mass, not a printed value.

What was measured:
ARPE-19 [1] = assay: Cytotoxicity against human ARPE19 cells assessed as effect on cell viability at 100 uM after 48 hrs in normoxic condition by MTT assay; assay type: cell-based; details: arpe-19, 48 h
[2] = tested on: Mycobacterium tuberculosis; assay: Antimycobacterial activity against drug-sensitive Mycobacterium tuberculosis H37Rv measured after 7 days by resazurin dye-based assay; assay type: functional; details: 168 h
Acinetobacter baumannii = assay: Antibacterial activity against Acinetobacter baumannii assessed as bacterial growth inhibition zone diameter at 5 ug after 18 hrs by Kirby-Bauer disk diffusion method; assay type: functional; details: read-out: DIZ
Staphylococcus aureus = assay: Antibacterial activity against Staphylococcus aureus assessed as bacterial growth inhibition zone diameter at 5 ug after 18 hrs by Kirby-Bauer disk diffusion method; assay type: functional; details: read-out: DIZ
Klebsiella pneumoniae = assay: Antibacterial activity against Klebsiella pneumoniae assessed as bacterial growth inhibition zone diameter at 5 ug after 18 hrs by Kirby-Bauer disk diffusion method; assay type: functional; details: read-out: DIZ
Pseudomonas aeruginosa = assay: Antibacterial activity against Pseudomonas aeruginosa assessed as bacterial growth inhibition zone diameter at 5 ug after 18 hrs by Kirby-Bauer disk diffusion method; assay type: functional; details: read-out: DIZ
ARPE-19 [3] = assay: Cytotoxicity against human ARPE19 cells assessed as effect on cell viability at 10 to 100 uM after 48 hrs in normoxic condition by MTT assay; assay type: cell-based; details: arpe-19, 48 h
[4] = Toxicity in C57BL6 mouse assessed as mortality at 400 mg/kg, po administered via metal gavage measured daily over 14 days; assay type: organism-based; details: in vivo, 336 h
Klebsiella aerogenes = assay: Antibacterial activity against Enterobacter aerogenes assessed as bacterial growth inhibition zone diameter at 5 ug after 18 hrs by Kirby-Bauer disk diffusion method; assay type: functional; details: read-out: DIZ
[5] = Toxicity in C57BL6 mouse assessed as mortality at 900 mg/kg, po administered via metal gavage measured daily over 14 days; assay type: organism-based; details: in vivo, 336 h
Enterococcus faecium = assay: Antibacterial activity against Enterococcus faecium assessed as bacterial growth inhibition zone diameter at 5 ug after 18 hrs by Kirby-Bauer disk diffusion method; assay type: functional; details: read-out: DIZ
[6] = Toxicity in po dosed C57BL6 mouse administered via metal gavage measured daily over 14 days; assay type: organism-based; details: in vivo

## COc1ccc(CC2CCOC3(CCN(C(=O)c4ccc([N+](=O)[O-])o4)CC3)C2)cc1 (centres undefined)
ARPE-19 [1]
  Activity: Toxic
[2]
  MIC: 3.1 µg/mL (≈ 7.48 µM)

## Cc1cccc(S(=O)(=O)NC2CCOC3(CCN(C(=O)c4ccc([N+](=O)[O-])o4)CC3)C2)c1 (centres undefined)
[2]
  MIC: 50 µg/mL (≈ 108 µM)

## CS(=O)(=O)NC1CCOC2(CCN(C(=O)c3ccc([N+](=O)[O-])o3)CC2)C1 (centres undefined)
[2]
  MIC: > 100 µg/mL

## Cl.NC1CCOC2(CCN(C(=O)c3ccc([N+](=O)[O-])o3)CC2)C1 (centres undefined)
[2]
  MIC: > 100 µg/mL

## O=C(c1ccc([N+](=O)[O-])o1)N1CCC2(CC1)CC(NS(=O)(=O)c1ccc(F)cc1)CCO2 (centres undefined)
[2]
  MIC: 50 µg/mL (≈ 107 µM)

## CNC(=O)CC1CCOC2(CCN(C(=O)c3ccc([N+](=O)[O-])o3)CC2)C1 (centres undefined)
[2]
  MIC: > 100 µg/mL

## O=C(c1ccc([N+](=O)[O-])o1)N1CCC2(CC1)CC(Cc1nc(-c3cccnc3)no1)CCO2 (centres undefined)
Acinetobacter baumannii
  zone of inhibition at 5 µg/disc: 0 mm
Staphylococcus aureus
  zone of inhibition at 5 µg/disc: 0 mm
Klebsiella pneumoniae
  zone of inhibition at 5 µg/disc: 0 mm
Pseudomonas aeruginosa
  zone of inhibition at 5 µg/disc: 0 mm
ARPE-19 [3]
  Activity: Non-Toxic
[4]
  Activity: Non-Toxic
Klebsiella aerogenes
  zone of inhibition at 5 µg/disc: 0 mm
[2]
  MIC: 1.6 µg/mL (≈ 3.53 µM)
[5]
  Activity: Toxic
Enterococcus faecium
  zone of inhibition at 5 µg/disc: 0 mm
[6]; C57BL6, mouse
  LD50 at 336 h: 617 mg/kg
[6]; mouse, 336 h
  LD16: 198 mg/kg
  LD84: 787.5 mg/kg
  LD100: 900 mg/kg

## O=C(c1ccc([N+](=O)[O-])o1)N1CCC2(CCCCO2)CC1
ARPE-19 [3]
  Activity: Non-Toxic
[2]
  MIC: 3.1 µg/mL (≈ 10.5 µM)

## O=C(c1ccc([N+](=O)[O-])o1)N1CCC2(CC1)CC(Oc1ccncc1)CCO2 (centres undefined)
[2]
  MIC: 25 µg/mL (≈ 64.5 µM)

## COCCc1noc(CC2CCOC3(CCN(C(=O)c4ccc([N+](=O)[O-])o4)CC3)C2)n1 (centres undefined)
ARPE-19 [3]
  Activity: Non-Toxic
[2]
  MIC: 6.2 µg/mL (≈ 14.3 µM)

## O=C(c1ccc([N+](=O)[O-])o1)N1CCC2(CC1)CC(NS(=O)(=O)c1ccc(Br)cc1)CCO2 (centres undefined)
[2]
  MIC: 25 µg/mL (≈ 47.3 µM)

## O=C(c1ccc([N+](=O)[O-])o1)N1CCC2(CC1)CC(Cc1ccc(F)cc1)CCO2 (centres undefined)
[2]
  MIC: 12.5 µg/mL (≈ 31.1 µM)

## O=C(c1ccc([N+](=O)[O-])o1)N1CCC2(CC1)CC(NS(=O)(=O)c1ccccc1F)CCO2 (centres undefined)
[2]
  MIC: 50 µg/mL (≈ 107 µM)

## CCOC1CCOC2(CCN(C(=O)c3ccc([N+](=O)[O-])o3)CC2)C1 (centres undefined)
[2]
  MIC: 50 µg/mL (≈ 148 µM)

## O=C(c1ccc([N+](=O)[O-])o1)N1CCC2(CC1)CC(NS(=O)(=O)c1ccccc1)CCO2 (centres undefined)
[2]
  MIC: 50 µg/mL (≈ 111 µM)

## O=C(c1ccc([N+](=O)[O-])o1)N1CCC2(CC1)CC(OCc1ccc(F)cc1)CCO2 (centres undefined)
ARPE-19 [3]
  Activity: Non-Toxic
[2]
  MIC: 3.1 µg/mL (≈ 7.41 µM)

## O=C(c1ccc([N+](=O)[O-])o1)N1CCC2(CC1)CC(OCC1CC1)CCO2 (centres undefined)
[2]
  MIC: 25 µg/mL (≈ 68.6 µM)

## O=C(c1ccc([N+](=O)[O-])o1)N1CCC2(CC1)CC(N1CCOCC1)CCO2 (centres undefined)
[2]
  MIC: > 100 µg/mL

## O=C(c1ccc([N+](=O)[O-])o1)N1CCC2(CC1)CC(Cc1nc(C3CC3)no1)CCO2 (centres undefined)
ARPE-19 [3]
  Activity: Non-Toxic
[2]
  MIC: 3.1 µg/mL (≈ 7.44 µM)

## CC(C)(C)OC(=O)NC1CCOC2(CCN(C(=O)c3ccc([N+](=O)[O-])o3)CC2)C1 (centres undefined)
[2]
  MIC: 25 µg/mL (≈ 61.1 µM)

## CN(Cc1ccccc1)C(=O)CC1CCOC2(CCN(C(=O)c3ccc([N+](=O)[O-])o3)CC2)C1 (centres undefined)
[2]
  MIC: 12.5 µg/mL (≈ 27.4 µM)

## Cc1ccc(CC2CCOC3(CCN(C(=O)c4ccc([N+](=O)[O-])o4)CC3)C2)cc1 (centres undefined)
ARPE-19 [1]
  Activity: Toxic
[2]
  MIC: 3.1 µg/mL (≈ 7.78 µM)

## COc1ccc(S(=O)(=O)NC2CCOC3(CCN(C(=O)c4ccc([N+](=O)[O-])o4)CC3)C2)cc1 (centres undefined)
[2]
  MIC: 50 µg/mL (≈ 104 µM)

## O=C(c1ccc([N+](=O)[O-])o1)N1CCC2(CC1)CC(NS(=O)(=O)c1ccc(F)c(Cl)c1)CCO2 (centres undefined)
[2]
  MIC: 25 µg/mL (≈ 49.8 µM)

## O=C(O)c1cn(C2CC2)c2cc(N3CCNCC3)c(F)cc2c1=O [CIPROFLOXACIN]
Acinetobacter baumannii
  zone of inhibition at 5 µg/disc: 30 mm
Staphylococcus aureus
  zone of inhibition at 5 µg/disc: 23 mm
Klebsiella pneumoniae
  zone of inhibition at 5 µg/disc: 25 mm
Pseudomonas aeruginosa
  zone of inhibition at 5 µg/disc: 23 mm
Klebsiella aerogenes
  zone of inhibition at 5 µg/disc: 25 mm
Enterococcus faecium
  zone of inhibition at 5 µg/disc: 23 mm
